The test system of one experiment is Candida albicans KF1. Kind of experiment: Paper disk antimicrobial activity. Format: cell-based. Further details: unit not given here. The conditions noted are these: 1 mg/ml 10 μl on 6 mm paper disk, 24 hours.
Experiment [1] concerns Mucor racemosus KF223 (IFO 4581). Kind of experiment: Paper disk antimicrobial activity. The experiment is classed as cell-based. Further details: unit not given here. The conditions noted are these: 1 mg/ml 10 μl on 6 mm paper disk, 24 hours.

SMILES strings stand for the structures.

`CCC(C)/C=C/C=C(\C)CC(C)/C=C/C=C/C1OC(=O)C(O)C2OC12C` (centres unmarked) [FT-0554 substance]: the inhibition zone diameter in the experiment on Candida albicans KF1 is 12; in experiment [1] it was 10.

Source of the values: patent US6486197B1, “Substance ft-0554 and process for producing the same” (The Kitasato Institute, priority 1997, dated 2002).
